Data: PubChem BioAssay AID330 (DTP/NCI, 2004)
Several values for one entry are separate records, joined by “and”; a condition that tells them apart may be missing. Equal entries are not always repeated. Toxic doses and inconclusive results are not listed. The calls were made as follows: active = survival T/C of 150% or more; inactive = T/C below 125% in these data.

Test system: P388 leukemia ip, CD2F1 mice, survival T/C
Test: NCI In Vivo Anticancer Drug Screen. Data for tumor model P388 Leukemia (intraperitoneal) in CD2F1 (CDF1) mice
Settings: endpoint: median survival time, higher = longer survival
How it was run: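 Mice carrying the transplanted tumor received test compound or vehicle. Survival was recorded in each group, and the value is the treated-group measurement divided by that of the vehicle-treated control group.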

[1] = dose: 100.0 mg/kg/injection, schedule: Q01DX001 (ip), vehicle: Klucel (hydroxypropylcellulose) (HPC)
[2] = dose: 200.0 mg/kg/injection, schedule: Q01DX001 (ip), vehicle: Klucel (hydroxypropylcellulose) (HPC)
[3] = dose: 50.0 mg/kg/injection, schedule: Q01DX005 (ip), vehicle: saline with Tween-80
[4] = dose: 100.0 mg/kg/injection, schedule: Q01DX005 (ip), vehicle: saline with Tween-80
[5] = dose: 200.0 mg/kg/injection, schedule: Q01DX005 (ip), vehicle: saline with Tween-80
[6] = dose: 100.0 mg/kg/injection, schedule: Q04DX003 (ip), vehicle: saline
[7] = dose: 400.0 mg/kg/injection, schedule: Q04DX003 (ip), vehicle: saline
[8] = dose: 50.0 mg/kg/injection, schedule: Q01DX009 (ip), vehicle: saline with Tween-80
[9] = dose: 100.0 mg/kg/injection, schedule: Q01DX009 (ip), vehicle: saline with Tween-80
[10] = dose: 200.0 mg/kg/injection, schedule: Q01DX009 (ip), vehicle: saline with Tween-80
[11] = dose: 60.0 mg/kg/injection, schedule: Q01DX005 (ip), vehicle: Klucel (hydroxypropylcellulose) (HPC)
[12] = dose: 120.0 mg/kg/injection, schedule: Q01DX005 (ip), vehicle: Klucel (hydroxypropylcellulose) (HPC)

Measured: T/C

CCOc1cc(CN2CCN(CCO)CC2)c(O)c(CN2CCN(CCO)CC2)c1
inactive: dose: 60.0 mg/kg/injection, schedule: Q01DX005 (ip), vehicle: water 97 % of control | dose: 120.0 mg/kg/injection, schedule: Q01DX005 (ip), vehicle: water 103 % of control | dose: 240.0 mg/kg/injection, schedule: Q01DX005 (ip), vehicle: water 104 % of control

COc1ccc2nc(N=Nc3ccc(N4CCOCC4)cc3C)sc2c1
inactive: [1] 86 % of control | [2] 86 % of control | dose: 400.0 mg/kg/injection, schedule: Q01DX001 (ip), vehicle: Klucel (hydroxypropylcellulose) (HPC) 88 % of control

NC(=S)N/N=C\C(CC(O)C(O)CO)=N\NC(N)=S (stereo not drawn)
inactive: [3] 89 % of control | [4] 95 % of control | [5] 98 % of control

CC1(C)Oc2cc3oc(C(=O)O)cc(=O)c3cc2-c2ccccc21
inactive: dose: 50.0 mg/kg/injection, schedule: Q01DX009 (ip), vehicle: saline 92 % of control | dose: 100.0 mg/kg/injection, schedule: Q01DX009 (ip), vehicle: saline 96 % of control | dose: 200.0 mg/kg/injection, schedule: Q01DX009 (ip), vehicle: saline 109 % of control

CC1(CC(C)(C)c2ccccc2)OCCO1
inactive: dose: 25.0 mg/kg/injection, schedule: Q01DX009 (ip), vehicle: water 96 % of control | dose: 50.0 mg/kg/injection, schedule: Q01DX009 (ip), vehicle: water 91 % of control | dose: 100.0 mg/kg/injection, schedule: Q01DX009 (ip), vehicle: water 102 % of control | dose: 200.0 mg/kg/injection, schedule: Q01DX009 (ip), vehicle: water 93 % of control | dose: 400.0 mg/kg/injection, schedule: Q01DX009 (ip), vehicle: water 104 % of control

CSC(=S)c1ccccc1NS(=O)(=O)c1ccccc1
inactive: [6] 113 % of control | dose: 200.0 mg/kg/injection, schedule: Q04DX003 (ip), vehicle: saline 103 % of control | [7] 108 % of control

CC(C)(C)c1cc(C(C)(C)C)c2ssnc1-2
inactive: dose: 60.0 mg/kg/injection, schedule: Q01DX005 (ip), vehicle: saline with Tween-80 89 % of control | dose: 120.0 mg/kg/injection, schedule: Q01DX005 (ip), vehicle: saline with Tween-80 91 % of control | dose: 240.0 mg/kg/injection, schedule: Q01DX005 (ip), vehicle: saline with Tween-80 91 % of control

CCOC(=O)Nc1cc2c(c(N)n1)N=C(c1ccc(Cl)cc1)CN2
inactive: dose: 1.5 mg/kg/injection, schedule: Q01DX009 (ip), vehicle: Klucel (hydroxypropylcellulose) (HPC) 92 % of control | dose: 3.0 mg/kg/injection, schedule: Q01DX009 (ip), vehicle: Klucel (hydroxypropylcellulose) (HPC) 111 % of control | dose: 12.0 mg/kg/injection, schedule: Q01DX009 (ip), vehicle: Klucel (hydroxypropylcellulose) (HPC) 95 % of control | dose: 12.5 mg/kg/injection, schedule: Q01DX009 (ip), vehicle: Klucel (hydroxypropylcellulose) (HPC) 86 % of control | dose: 50.0 mg/kg/injection, schedule: Q04DX003 (ip), vehicle: Klucel (hydroxypropylcellulose) (HPC) 101 % of control

N#CCCCCCBr
inactive: [8] 98 % of control | [9] 100 % of control | [10] 100 % of control

COc1ccc2c(c1)CN(CCc1ccc([N+](=O)[O-])cc1)CO2
inactive: [3] 96 % of control | [4] 94 % of control | [5] 96 % of control

O=S(=O)(O)CC[S][Sn]([S]CCS(=O)(=O)O)([c]1ccccc1)[c]1ccccc1 (tested in a mixture with another compound)
inactive: dose: 1.87 mg/kg/injection, schedule: Q01DX005 (ip), vehicle: Klucel (hydroxypropylcellulose) (HPC) 121 % of control
active: dose: 3.75 mg/kg/injection, schedule: Q01DX005 (ip), vehicle: Klucel (hydroxypropylcellulose) (HPC) 152 % of control

O=C1c2ccccc2C(=O)N1Cc1cccc(I)c1
inactive: [11] 97 % of control | [12] 94 % of control

CNC1C(O)C2Oc3c(cc(O)c4c3C(=O)c3cc5c(c(O)c3C4=O)C(OC)CC(C)(O)C5)C(C)(O2)C1O (stereo not drawn)
active: dose: 0.62 mg/kg/injection, schedule: Q01DX009 (ip), vehicle: saline 151 % of control | dose: 1.25 mg/kg/injection, schedule: Q01DX009 (ip), vehicle: saline 173 % of control
inactive: dose: 2.5 mg/kg/injection, schedule: Q01DX009 (ip), vehicle: saline 115 % of control

CCCCCCCCCCCCC1=C(OC)C(NC(=O)CCCCCCCCCCC)=CC(=O)C1=O
inactive: dose: 50.0 mg/kg/injection, schedule: Q01DX001 (ip), vehicle: Klucel (hydroxypropylcellulose) (HPC) 92 % of control | [1] 88 % of control | [2] 90 % of control

COc1nc(N(C)C)c2cnn(C3CCCCO3)c2n1 (stereo not drawn)
inactive: dose: 12.5 mg/kg/injection, schedule: Q04DX002 (ip), vehicle: saline with Tween-80 102 % of control | dose: 25.0 mg/kg/injection, schedule: Q04DX002 (ip), vehicle: saline with Tween-80 97 % of control

COc1ccc2c(Br)c(NC(C)=O)ccc2c1Br
inactive: dose: 25.0 mg/kg/injection, schedule: Q04DX003 (ip), vehicle: saline 100 % of control | dose: 50.0 mg/kg/injection, schedule: Q04DX003 (ip), vehicle: saline 96 % of control | [6] 98 % of control and 96 % of control | [7] 95 % of control

COc1cccc2c1NC(O)c1cccn1C2=O (stereo not drawn)
inactive: dose: 0.1 mg/kg/injection, schedule: Q01DX005 (ip), vehicle: water 93 % of control | dose: 0.2 mg/kg/injection, schedule: Q01DX005 (ip), vehicle: water 93 % of control | dose: 0.4 mg/kg/injection, schedule: Q01DX005 (ip), vehicle: water 96 % of control | dose: 0.8 mg/kg/injection, schedule: Q01DX005 (ip), vehicle: water 93 % of control | dose: 1.6 mg/kg/injection, schedule: Q01DX005 (ip), vehicle: water 98 % of control | dose: 5.0 mg/kg/injection, schedule: Q01DX005 (ip), vehicle: distilled water + Tween-80 90 % of control | dose: 10.0 mg/kg/injection, schedule: Q01DX005 (ip), vehicle: distilled water + Tween-80 98 % of control | dose: 20.0 mg/kg/injection, schedule: Q01DX005 (ip), vehicle: distilled water + Tween-80 100 % of control | dose: 40.0 mg/kg/injection, schedule: Q01DX005 (ip), vehicle: distilled water + Tween-80 100 % of control | dose: 80.0 mg/kg/injection, schedule: Q01DX005 (ip), vehicle: distilled water + Tween-80 93 % of control

CN1CCC(=C2c3ccccc3C(=O)C(=O)c3sccc32)CC1
inactive: [8] 95 % of control | [9] 95 % of control | [10] 111 % of control

O=C1c2ccccc2-c2nnsc21
inactive: [11] 98 % of control | [12] 107 % of control | dose: 240.0 mg/kg/injection, schedule: Q01DX005 (ip), vehicle: Klucel (hydroxypropylcellulose) (HPC) 100 % of control

CCc1cccc(CC)c1-n1nnc(C(=O)c2ccccc2)c1C(=O)OC
inactive: dose: 60.0 mg/kg/injection, schedule: Q01DX005 (ip), vehicle: Klucel + Tween-80 100 % of control | dose: 120.0 mg/kg/injection, schedule: Q01DX005 (ip), vehicle: Klucel + Tween-80 109 % of control | dose: 240.0 mg/kg/injection, schedule: Q01DX005 (ip), vehicle: Klucel + Tween-80 102 % of control

O=Nc1cc(S(=O)(=O)O)c2ccccc2c1O
inactive: [8] 100 % of control | [9] 90 % of control | [10] 90 % of control

CCCCCCCCCCCCCCCCS(=O)(=O)N/N=C(/c1ccc(OC)c(OC)c1)N1CCCCC1
inactive: dose: 50.0 mg/kg/injection, schedule: Q01DX009 (ip), vehicle: other 102 % of control | dose: 100.0 mg/kg/injection, schedule: Q01DX009 (ip), vehicle: other 91 % of control | dose: 200.0 mg/kg/injection, schedule: Q01DX009 (ip), vehicle: other 93 % of control

COc1cc(OC)c2[nH]c3c(c(=O)c2c1)C(=O)c1[nH]c2c(OC)cc(OC)cc2c(=O)c1C3=O
inactive: dose: 50.0 mg/kg/injection, schedule: Q01DX009 (ip), vehicle: Klucel (hydroxypropylcellulose) (HPC) 109 % of control | dose: 100.0 mg/kg/injection, schedule: Q01DX009 (ip), vehicle: Klucel (hydroxypropylcellulose) (HPC) 105 % of control | dose: 200.0 mg/kg/injection, schedule: Q01DX009 (ip), vehicle: Klucel (hydroxypropylcellulose) (HPC) 108 % of control
